In patent publication US20240246937A1 (MERCK SHARP & DOHME LLC, priority 2021, published 2024):

biological target: recombinant IL4I1 (Homo sapiens (Human), UniProt Q96RQ9); experiment: IL4I1 Enzymatic Assay (Amplex Red/HRP coupled fluorescence detection of H2O2); format: biochemical; conditions: 240 min; recombinant IL4I1, four-hour pre-incubation with compound
Method in brief: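 Recombinant human IL4I1 (1 nM final) pre-incubated 4 h with compound at ambient temperature in 50 mM Hepes pH 7.0, 0.005% Tween20. Started with 1 mM each Phe/Tyr/Trp plus Amplex Red/HRP; H2O2-derived resorufin fluorescence read after 120 min; EC50 from ten-point 1:3 titration, four-parameter fit.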

Sequence of recombinant IL4I1 (Q96RQ9 22-567): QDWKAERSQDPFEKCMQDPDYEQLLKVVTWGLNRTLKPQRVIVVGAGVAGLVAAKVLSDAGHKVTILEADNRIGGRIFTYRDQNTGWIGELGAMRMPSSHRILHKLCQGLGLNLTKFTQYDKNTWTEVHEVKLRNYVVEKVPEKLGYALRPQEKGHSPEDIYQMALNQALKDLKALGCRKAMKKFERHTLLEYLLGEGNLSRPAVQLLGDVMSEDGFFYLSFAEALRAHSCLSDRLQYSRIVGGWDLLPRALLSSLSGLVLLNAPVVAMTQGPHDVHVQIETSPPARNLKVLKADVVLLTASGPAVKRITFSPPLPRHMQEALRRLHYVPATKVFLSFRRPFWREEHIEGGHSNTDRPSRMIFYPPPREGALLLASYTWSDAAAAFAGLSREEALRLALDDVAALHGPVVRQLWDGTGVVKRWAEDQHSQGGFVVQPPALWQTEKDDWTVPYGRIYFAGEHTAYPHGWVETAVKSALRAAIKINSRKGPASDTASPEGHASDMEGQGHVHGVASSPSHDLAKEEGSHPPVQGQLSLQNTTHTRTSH

| EC50 | Compound |
| --- | --- |
| 4 nM | O=c1c(=O)n(C23CC(C2)C3)ccn1Cc1ccc(-c2cccc(F)c2)nn1 [Example 64, 1-(bicyclo[1.1.1]pentan-1-yl)-4-((6-(3-fluorophenyl)pyridazin-3-yl)methyl)-1,4-dihydropyrazine-2,3-dione] |
| 6 nM | O=c1c(=O)n([C@H]2C[C@H]3C[C@H]3C2)ccn1Cc1cc(-c2ccccn2)on1 [Example 375, 1-((cis)-bicyclo[3.1.0]hexan-3-yl)-4-((5-(pyridin-2-yl)isoxazol-3-yl)methyl)-1,4-dihydropyrazine-2,3-dione] |
| 71 nM | CC1(n2ccn(Cc3ccc(-c4nccs4)nn3)c(=O)c2=O)CC1 [Example 377, 1-(1-methylcyclopropyl)-4-((6-(thiazol-2-yl)pyridazin-3-yl)methyl)-1,4-dihydropyrazine-2,3-dione] |
| 114 nM | O=C1C(=O)N(C23CC(F)(C2)C3)CCN1Cc1ccc(-n2nccn2)nc1 [Example 265, 1-((6-(2H-1,2,3-triazol-2-yl)pyridin-3-yl)methyl)-4-(3-fluorobicyclo[1.1.1]pentan-1-yl)piperazine-2,3-dione] |
| 4 nM | O=C1C(=O)N([C@H]2C[C@@H](c3ccccc3)C2)CCN1Cc1ccc(-c2ccccc2)nc1 [Example 266A, cis-1-(3-phenylcyclobutyl)-4-((6-phenylpyridin-3-yl)methyl)piperazine-2,3-dione] |
| 41 nM | O=C1C(=O)N(C2CCCC2)CCN1Cc1nnc(N2CCCC2)s1 [Example 310, 1-cyclopentyl-4-((5-(pyrrolidin-1-yl)-1,3,4-thiadiazol-2-yl)methyl)piperazine-2,3-dione] |
| 1 nM | O=c1c(=O)n(C2CCC2)ccn1Cc1cc(-c2ccc(F)cc2)on1 [Example 55, 1-cyclobutyl-4-((5-(4-fluorophenyl)isoxazol-3-yl)methyl)-1,4-dihydropyrazine-2,3-dione] |
| 84 nM | O=C1C(=O)N(C2CCC2)CCN1CC12CC(c3ccccn3)(C1)C2 [Example 177, 1-cyclobutyl-4-((3-(pyridin-2-yl)bicyclo[1.1.1]pentan-1-yl)methyl)piperazine-2,3-dione] |
| 8 nM | O=c1c(=O)n(C23CC(C2)C3)ccn1Cc1ccc(-c2ccccc2F)nn1 [Example 193, 1-(bicyclo[1.1.1]pentan-1-yl)-4-((6-(2-fluorophenyl)pyridazin-3-yl)methyl)-1,4-dihydropyrazine-2,3-dione] |
| 27 nM | O=C1C(=O)N(C23CC(C2)C3)CCN1Cc1ccc(-n2nccn2)cc1F [Example 407, 1-(bicyclo[1.1.1]pentan-1-yl)-4-(2-fluoro-4-(2H-1,2,3-triazol-2-yl)benzyl)piperazine-2,3-dione] |
| 53 nM | N#CC12CC(N3CCN(Cc4nnc(-c5ccccc5)s4)C(=O)C3=O)(C1)C2 [Example 295, 3-(2,3-dioxo-4-((5-phenyl-1,3,4-thiadiazol-2-yl)methyl)piperazin-1-yl)bicyclo[1.1.1]pentane-1-carbonitrile] |
| 19 nM | O=c1c(=O)n(C23CC(C2)C3)ccn1Cc1cn(-c2ccccn2)nn1 [Example 427, 1-(bicyclo[1.1.1]pentan-1-yl)-4-((1-(pyridin-2-yl)-1H-1,2,3-triazol-4-yl)methyl)-1,4-dihydropyrazine-2,3-dione] |
| 6 nM | O=c1c(=O)n(C2CCC2)ccn1Cc1ccc(-c2cccc(F)c2F)nn1 [Example 71, 1-cyclobutyl-4-((6-(2,3-difluorophenyl)pyridazin-3-yl)methyl)-1,4-dihydropyrazine-2,3-dione] |
| 42 nM | O=c1c(=O)n([C@H]2C[C@H]3C[C@H]3C2)ccn1Cc1ncc(-c2nccs2)cc1F [Example 371, 1-((cis)-bicyclo[3.1.0]hexan-3-yl)-4-((3-fluoro-5-(thiazol-2-yl)pyridin-2-yl)methyl)-1,4-dihydropyrazine-2,3-dione] |
| 13 nM | O=C1C(=O)N(C2CCCC2)CCN1Cc1cnc(-c2ccccc2F)cn1 [Example 46, 1-cyclopentyl-4-((5-(2-fluorophenyl)pyrazin-2-yl)methyl)piperazine-2,3-dione] |
| 6 nM | O=C1C(=O)N([C@H]2C[C@H]3C[C@H]3C2)CCN1Cc1cnc(-c2ccccc2)cn1 [Example 129, 1-((cis)-bicyclo[3.1.0]hexan-3-yl)-4-((5-phenylpyrazin-2-yl)methyl)piperazine-2,3-dione] |
| 64 nM | O=C1C(=O)N(c2ccccc2)CCN1Cc1ncc(-c2ccccc2)cn1 [Example 292, 1-phenyl-4-((5-phenylpyrimidin-2-yl)methyl)piperazine-2,3-dione] |
| 12 nM | O=C1C(=O)N(C2CCCC2)CCN1Cc1ccc(-c2ccccc2)nn1 [Example 3, 1-cyclopentyl-4-((6-phenylpyridazin-3-yl)methyl)piperazine-2,3-dione] |
| 3 nM | O=c1c(=O)n([C@H]2C[C@H]3C[C@H]3C2)ccn1Cc1cnc(-c2ccccc2)cn1 [Example 125] |
| 31 nM | O=C1C(=O)N(C2CCC2)CCN1Cc1ccc(-c2cnco2)nn1 [Example 394, 1-cyclobutyl-4-((6-(oxazol-5-yl)pyridazin-3-yl)methyl)piperazine-2,3-dione] |

| EC50 | Compound |
| --- | --- |
| 9 nM | O=C1C(=O)N(C23CC(C2)C3)CCN1Cc1nnc(-c2cccc(F)c2)s1 [Example 2, 1-(bicyclo[1.1.1]pentan-1-yl)-4-((5-(3-fluorophenyl)-1,3,4-thiadiazol-2-yl)methyl)piperazine-2,3-dione] |
| 6 nM | O=C1C(=O)N(C23CC(C2)C3)CCN1Cc1cc(-c2ccccc2)no1 [Example 171, 1-(bicyclo[1.1.1]pentan-1-yl)-4-((3-phenylisoxazol-5-yl)methyl)piperazine-2,3-dione] |
| 24 nM | O=C1C(=O)N(C2CCC2)CCN1Cc1ncc(-c2ccccc2)cn1 [Example 277, 1-cyclobutyl-4-((5-phenylpyrimidin-2-yl)methyl)piperazine-2,3-dione] |
| 3 nM | O=C1C(=O)N(C2CCCC2)CCN1Cc1cc(-c2ccccc2F)no1 [Example 154, 1-cyclopentyl-4-((3-(2-fluorophenyl)isoxazol-5-yl)methyl)piperazine-2,3-dione] |
| 59 nM | O=c1c(=O)n(C23CC(F)(C2)C3)ccn1Cc1ccc(-n2cccn2)cn1 [Example 219, 1-((5-(1H-pyrazol-1-yl)pyridin-2-yl)methyl)-4-(3-fluorobicyclo[1.1.1]pentan-1-yl)-1,4-dihydropyrazine-2,3-dione] |
| 36 nM | O=C1C(=O)N(C23CC(C2)C3)CCN1Cc1ccc(-n2ccnn2)nn1 [Example 402, 1-((6-(1H-1,2,3-triazol-1-yl)pyridazin-3-yl)methyl)-4-(bicyclo[1.1.1]pentan-1-yl)piperazine-2,3-dione] |
| 26 nM | O=C1C(=O)N(C2CCCC2)CCN1Cc1ncc(-c2nccs2)cc1F [Example 139, 1-cyclopentyl-4-((3-fluoro-5-(thiazol-2-yl)pyridin-2-yl)methyl)piperazine-2,3-dione] |
| 44 nM | O=C1C(=O)N(C2CCCC2)CCN1Cc1ccc(-c2cn[nH]c2)nn1 [Example 15, 1-((6-(1H-pyrazol-4-yl)pyridazin-3-yl)methyl)-4-cyclopentylpiperazine-2,3-dione] |
| 2 nM | O=C1C(=O)N(C2CCC2)CCN1Cc1cc(-c2ccccc2)on1 [Example 105, 1-cyclobutyl-4-((5-phenylisoxazol-3-yl)methyl)piperazine-2,3-dione] |
| 82 nM | O=C1C(=O)N(C23CC(F)(C2)C3)CCN1Cc1cc(-c2ccccn2)no1 [Example 232, 1-(3-fluorobicyclo[1.1.1]pentan-1-yl)-4-((3-(pyridin-2-yl)isoxazol-5-yl)methyl)piperazine-2,3-dione] |
| 15 nM | O=C1C(=O)N(C2CCCC2)CCN1CC12CC(c3ccccc3)(C1)C2 [Example 132, 1-cyclopentyl-4-((3-phenylbicyclo[1.1.1]pentan-1-yl)methyl)piperazine-2,3-dione] |
| 50 nM | O=C1C(=O)N(C2CCCC2)CCN1Cc1ncc(-c2cncs2)cn1 [Example 5, 1-cyclopentyl-4-((5-(thiazol-5-yl)pyrimidin-2-yl)methyl)piperazine-2,3-dione] |
| 68 nM | O=C1C(=O)N(C2CCOC2)CCN1Cc1ncc(-c2ccccc2)cn1 (stereo not shown) [Example 279, 1-((5-phenylpyrimidin-2-yl)methyl)-4-(tetrahydrofuran-3-yl)piperazine-2,3-dione] |
| 1 nM | O=c1c(=O)n(C2CCCC2)ccn1Cc1nnc(-c2cccc(F)c2)s1 [Example 145, 1-cyclopentyl-4-((5-(3-fluorophenyl)-1,3,4-thiadiazol-2-yl)methyl)-1,4-dihydropyrazine-2,3-dione] |
| 13 nM | Cc1ccccc1-c1nnc(CN2CCN(C34CC(C3)C4)C(=O)C2=O)s1 [Example 84, 1-(bicyclo[1.1.1]pentan-1-yl)-4-((5-(o-tolyl)-1,3,4-thiadiazol-2-yl)methyl)piperazine-2,3-dione] |
| 69 nM | O=C1C(=O)N(C2CCCC2)CCN1Cc1ncc(-c2ccccn2)cn1 [Example 342, 1-cyclopentyl-4-((5-(pyridin-2-yl)pyrimidin-2-yl)methyl)piperazine-2,3-dione] |
| 31 nM | O=c1c(=O)n(C23CC(C2)C3)ccn1Cc1ccc(-c2ccccn2)nn1 [Example 93, 1-(bicyclo[1.1.1]pentan-1-yl)-4-((6-(pyridin-2-yl)pyridazin-3-yl)methyl)-1,4-dihydropyrazine-2,3-dione] |
| 11 nM | O=C1C(=O)N(C2(CF)CC2)CCN1Cc1cc(-c2ccccc2)no1 [Example 196, 1-(1-(fluoromethyl)cyclopropyl)-4-((3-phenylisoxazol-5-yl)methyl)piperazine-2,3-dione] |
| 13 nM | O=C1C(=O)N(C2CCC2)CCN1Cc1cnc(-c2ccccc2)nc1 [Example 107, 1-cyclobutyl-4-((2-phenylpyrimidin-5-yl)methyl)piperazine-2,3-dione] |
| 20 nM | O=C1C(=O)N([C@H]2C[C@@H](c3ccccc3)C2)CCN1Cc1ccc(-n2nccn2)nn1 [Example 326, 1-((6-(2H-1,2,3-triazol-2-yl)pyridazin-3-yl)methyl)-4-((cis)-3-phenylcyclobutyl)piperazine-2,3-dione] |
